For four molecules, IC50 and Activity results are on record in ChEMBL document CHEMBL3739349, “Cytotoxic Clerodane Diterpenoids from the Leaves of Casearia grewiifolia” (J Nat Prod, 2015).

What is called IC50 is the concentration needed to halve the response being measured.

Data set [1] relates to Lu1. The data set is described as follows: Cytotoxicity against human Lu1 cells assessed as growth inhibition after 72 hrs by neutral red staining based colorimetric assay. It counts as functional, cell-based. As to conditions: Lu1, 72 h.
The subject of data set [2] is HepG2. The experiment in a line: Cytotoxicity against human HepG2 cells assessed as growth inhibition after 72 hrs by neutral red staining based colorimetric assay. It counts as functional, cell-based. As to conditions: HepG2, 72 h.
Data set [3] is described as follows: Cytotoxicity against mouse NIH/3T3 cells assessed as growth inhibition at 100 uM after 72 hrs by neutral red staining based colorimetric assay. It counts as cell-based. Conditions: nih3t3, 72 h.
Data set [4] can be described thus: Cytotoxicity against mouse NIH/3T3 cells assessed as growth inhibition after 72 hrs by neutral red staining based colorimetric assay. The format is cell-based. As to conditions: NIH3T3, 72 h.
For data set [5], the system named is MCF7. The data set is described as follows: Cytotoxicity against human MCF7 cells assessed as growth inhibition after 72 hrs by neutral red staining based colorimetric assay. As to conditions: MCF7, 72 h. It counts as functional, cell-based.
For data set [6], the system named is KB. The data set is described as follows: Cytotoxicity against human KB cells assessed as growth inhibition after 72 hrs by neutral red staining based colorimetric assay. It counts as functional, cell-based.

Take `C=CC(=C)CC[C@]1(C)[C@H](C)[C@@H](OC(=O)/C=C/c2ccc(O)cc2)[C@H](O)[C@@]23C(=C[C@H](OC(=O)CCC)C[C@@H]12)[C@H](OC)O[C@H]3OC`: the IC50 in data set [1] was > 10000 nM; in data set [2], 7000 nM; in data set [4], > 10000 nM; in data set [5], > 10000 nM; in data set [6] it was 6200 nM. The Activity entry in data set [3] is given as “Non-toxic”.
As to `C=CC(=C)CC[C@]1(C)[C@H](C)[C@@H](OC(=O)/C=C/c2ccc(O)cc2)[C@H](O)[C@@]23C(=C[C@H](OC(=O)CC(C)C)C[C@@H]12)[C@H](OC)O[C@H]3OC(C)=O`, the IC50 in data set [1], in data set [2], in data set [4], in data set [5] and in data set [6] was > 10000 nM in each case.
As for `C=CC(=C)CC[C@]1(C)[C@H](C)C[C@H](O)[C@@]23C(=C[C@H](OC(=O)CCC)C[C@@H]12)[C@@H](OC(C)=O)O[C@H]3OC(C)=O` [CASEANIGRESCEN D], the IC50 was determined as 900 nM in data set [1]; 300 nM in data set [2]; 300 nM in data set [4]; 800 nM in data set [5]; 500 nM in data set [6].
Turning to `Cc1c2ccncc2c(C)c2c1[nH]c1ccccc12` [ELLIPTECINE], the IC50 in data set [1] is 1200 nM; in data set [2] it was 1500 nM; in data set [4], 1300 nM; in data set [5] it was 900 nM; in data set [6], 1400 nM.
